Measured values published in BigSolDB 2.1.

Cc1ccc(S(=O)[O-])cc1.[Na+]
solubility (mole fraction)
Conditions | in DMF | in acetone | in acetonitrile | in ethanol | in isopropanol | in methanol | in n-butanol | in n-propanol | in water
278.15 K | 0.00114 | 0.00039 | 5.8e-05 | 0.0031 | 0.00083 | 0.0234 | 0.00032 | 0.00301 | 0.0172
283.15 K | 0.00169 | 0.00047 | 7.7e-05 | 0.00328 | 0.00086 | 0.0313 | 0.00035 | 0.00311 | 0.0201
288.15 K | 0.0025 | 0.00057 | 9.9e-05 | 0.00337 | 0.00089 | 0.04 | 0.00039 | 0.00321 | 0.0234
293.15 K | 0.00365 | 0.00067 | 0.00013 | 0.00345 | 0.00093 | 0.0511 | 0.00043 | 0.00331 | 0.0272
298.15 K | 0.00525 | 0.0008 | 0.00016 | 0.00354 | 0.00097 | 0.0665 | 0.00047 | 0.00347 | 0.0314
303.15 K | 0.00747 | 0.00094 | 0.00021 | 0.00363 | 0.001 | 0.0851 | 0.00052 | 0.00364 | 0.0358
308.15 K | 0.0105 | 0.00111 | 0.00027 | 0.00373 | 0.00105 | 0.106 | 0.00057 | 0.00381 | 0.0404
313.15 K | 0.0146 | 0.0013 | 0.00033 | 0.00383 | 0.00109 | 0.13 | 0.00063 | 0.00401 | 0.0453
318.15 K | 0.02 | 0.00151 | 0.00041 | 0.00393 | 0.00113 | 0.156 | 0.00069 | 0.00421 | 0.0514
